Assay results reported in article PMC9421656, “Beyond Retigabine: Design, Synthesis, and Pharmacological Characterization of a Potent and Chemically Stable Neuronal Kv7 Channel Activator with Anticonvulsant Activity” (Journal of Medicinal Chemistry, 2022).

Legend:
Kv7.2/Kv7.3 channels = Kv7.2/Kv7.3 channels (Homo sapiens, UniProt O43525+O43526); experiment: FluxOR thallium-sensitive fluorescence-based assay in CHO cells stably expressing Kv7.2 + Kv7.3; format: cell-based; parameters: expressed in transfected cells; details: 10 μM; for Kv7 opening activity (in words): compared with retigabine or the reference compound of the subseries; for Slope of the fluorescent signal at 10 μM: initial slope of FluxOR signal between 5 and 15 s, mean ± SEM
Method: While assay robustness in Kv7.2/Kv7.3-expressing cells was high (Z′ factor > 0.5),[27] the Z′ factor calculated in CHO cells expressing Kv7.2 subunits alone was <0.5; thus, all subsequent pharmacological screens were performed in Kv7.2/Kv7.3-expressing cells. […] The Kv7.2/Kv7.3-stable cell line was generated using a plasmid-based PiggyBac transposon system that enables genomic integration of multiple independent transposons containing distinct cDNA sequences. cDNAs for KCNQ2 and KCNQ3 genes (encoding for Kv7.2 and Kv7.3, respectively) were cloned into two different PiggyBac expression vectors (pB-CMV-MCS-EF1α-RedPuro, System Biosciences), and these two plasmids, together with a plasmid encoding for the transposase (System Biosciences), were transfected into CHO cells using Lipofectamine 2000 (Invitrogen) as indicated in the protocol provided by the seller company.
The selected clone stably expressing Kv7.2/Kv7.3 channels was grown in DMEM supplemented with 10% FBS, 50 U/mL Pen-Strep, 2 mM L-glutamine (all purchased from Gibco), and 4 μg/mL puromycin (Sigma) in a humidified atmosphere at 37 °C with 5% CO2. […] A kinetic dispense microplate reader (FLUOstar Optima) was used to read the plate, setting the excitation filter at 485 nm and the emission filter at 520 nm; “Stimulus buffer” prepared as indicated in the protocol was automatically added to wells after 5 s of recording; the plate was read every 1 s, for 50 s. The results were analyzed using Optima Data Analysis and Microsoft Excel.
Only experiments resulting in a Z′ > 0.5 were considered. Data shown (Figures 1D,E,F,G and 3B) were obtained from at least three independent experiments.
Data were analyzed using the GraphPad Prism 8.0.2 (GraphPad Software, LaJolla, CA). Statistically significant differences in the initial slope of the curves were evaluated through ordinary one-way ANOVA, and multiple comparisons were corrected with the Tukey test. […] Indicated EC50 values are the mean of at least three independent experiments ± standard error of the mean (SEM).

[1] = Photostability under UV-visible light with HPLC analysis (degradation, dimer formation); format: physicochemical; details: for % Degradation (3h, UV): 10 μM, buffered aqueous solution pH 7.4, 3 h UV-visible light, ± SD; for Dimers Formation: 3 h UV-visible light, HPLC at 550 nm
Description: Two different HPLC wavelengths were utilized: (a) […] to evaluate the decreased concentration of the starting molecule; (b) 550 nm to investigate the formation of phenazine/phenazinium dimers, as previously described.[10] Unfortunately, dimer formation was detected for all tested compounds, except for 23 and 24. […]. […]. The first group consisted of N4 (−X- in Table 2) substituted analogues, in which the tertiary amine is unavailable for the formation of phenazine dimers (compounds 25–28). […]. The third group included derivatives replacing hydrogen atoms with electron-withdrawing fluorine atoms at position R2 of the benzene-1,2,4-triamine core scaffold (compounds 59, 60), a strategy likely reducing the reactivity of N2 and N4. […].
Photostability experiments were performed by dissolving compounds in DMSO and then diluting in buffered aqueous solutions at pH 7.4 to a final concentration of 10 μM. 1 cm quartz cells, filled with the abovementioned solutions, were irradiated by a UV lamp (UV Consulting TQ 150 equipped with Duran 50 sleeve and 150 W power supply unit, Peschl, Germany) at a fixed distance of 20 cm from the UV source. Control samples were maintained at 37 °C, wrapped with aluminum foil to avoid light exposure, and used to assess chemical stability of the compounds. At predetermined intervals, aliquots were withdrawn and analyzed by UHPLC in order to assess the concentration decrease of the starting materials and the presence of the dimers usually formed by retigabine.
Photostability and chemical stability experiments were carried out on a Kinetex^TM C18 150 × 2.1 mm × 2.6 μm (100 Å) column (Phenomenex, Bologna, Italy). The optimal mobile phase consisted of 0.1% TFA/H2O v/v (A) and 0.1% TFA/ACN v/v (B). Analysis was performed in gradient elution as follows: 0–13.0 min, 5–65% B; 13–14.0 min, 65–95% B; 14–15.0 min, isocratic to 95% B; 15–15.01 min, 95–5% B; then 3 min for column re-equilibration. The flow rate was 0.5 mL min^–1. The column oven temperature was set to 45 °C. The injection volume was 7 μL of sample. The following PDA parameters were applied: sampling rate, 12.5 Hz; detector time constant, 0.160 s; cell temperature, 40 °C. Data acquisition was set in the range 190–800 nm, and chromatograms were monitored at 224 nm to assess the decrease in concentration of the starting material, while a wavelength of 550 nm was used to eventually detect dimerization.

Compound	Kv7 opening activity (in words) (Kv7.2/Kv7.3 channels)	Slope of the fluorescent signal at 10 μM (Kv7.2/Kv7.3 channels)	% Degradation (3h, UV) [1] [%]	Dimers Formation [1]
CCCCCCC(=O)Nc1ccc(NCc2ccc(C(F)(F)F)cc2)cc1 [compound 2, N-(4-((4-(Trifluoromethyl)benzyl)amino)phenyl)heptanamide]	still active although with slightly lower efficacy	0.0326±0.0063		
CCCCCCC(=O)Nc1ccc(NCc2ccc(C(F)(F)F)cc2)cc1N [compound 13, N-(2-Amino-4-((4-(trifluoromethyl)benzyl)amino)phenyl)heptanamide]		0.0443±0.0049	30.6 ± 2.2	Yes
CCCCCCCC(=O)Nc1ccc(NCc2ccc(C(F)(F)F)cc2)cc1N [compound 14, N-(2-Amino-4-((4-(trifluoromethyl)benzyl)amino)phenyl)octanamide]		0.0563±0.0039	73.2±0.4	Yes
CCCCCCCCCC(=O)Nc1ccc(NCc2ccc(C(F)(F)F)cc2)cc1N [compound 15, N-(2-Amino-4-((4-(trifluoromethyl)benzyl)amino)phenyl)decanamide]	progressive decrease in Kv7 opening ability	0.0261±0.0030		
CCCCCCCCCCCC(=O)Nc1ccc(NCc2ccc(C(F)(F)F)cc2)cc1N [compound 16, N-(2-Amino-4-((4-(trifluoromethyl)benzyl)amino)phenyl)dodecanamide]	progressive decrease in Kv7 opening ability	0.0084±0.0004		
CC(C)(C)CC(=O)Nc1ccc(NCc2ccc(C(F)(F)F)cc2)cc1N [compound 17, N-(2-Amino-4-((4-(trifluoromethyl)benzyl)amino)phenyl)-3,3-dimethylbutanamide]		0.0512±0.0040	79.8 ± 4.2	Yes
Nc1cc(NCc2ccc(C(F)(F)F)cc2)ccc1NC(=O)C1CC1 [compound 18, N-(2-Amino-4-((4-(trifluoromethyl)benzyl)amino)phenyl)cyclopropanecarboxamide]		0.0346±0.0078		
Nc1cc(NCc2ccc(C(F)(F)F)cc2)ccc1NC(=O)CCC1CCCCC1 [compound 19, N-(2-Amino-4-((4-(trifluoromethyl)benzyl)amino)phenyl)-3-cyclohexylpropanamide]		0.0452±0.0077	64.8 ± 0.9	Yes
COCCOCC(=O)Nc1ccc(NCc2ccc(C(F)(F)F)cc2)cc1N [compound 20, N-(2-Amino-4-((4-(trifluoromethyl)benzyl)amino)phenyl)-2-(2-methoxyethoxy)acetamide]	complete loss of activity	0.0062±0.0005		
CCCCCCC(=O)Nc1ccc(N(CCC)Cc2ccc(C(F)(F)F)cc2)cc1N [compound 27, N-(2-Amino-4-(propyl(4-(trifluoromethyl)benzyl)amino)phenyl)heptanamide]	did not improve activity	0.0363±0.0052		
CCCCCCC(=O)Nc1ccc(N(Cc2ccc(C(F)(F)F)cc2)C(C)=O)cc1N [compound 28, N-(2-Amino-4-(N-(4-(trifluoromethyl)benzyl)acetamido)phenyl)heptanamide]	markedly reduced activity	0.0138±0.0024		
CCCCCCC(=O)Nc1ccc(OCc2ccc(C(F)(F)F)cc2)cc1N [compound 31, N-(2-Amino-4-((4-(trifluoromethyl)benzyl)oxy)phenyl)heptanamide]	failed to activate Kv7.2/ Kv7.3 channels	0.0057±0.0005		
CCCCCCC(=O)Nc1ccc(NCCc2ccc(F)cc2)cc1N [compound 42, N-(2-Amino-4-((4-fluorophenethyl)amino)phenyl)heptanamide]	complete loss of activity	0.0098±0.0010		
CCCCCCC(=O)Nc1ccc(NCc2ccccn2)cc1N [compound 47, N-(2-Amino-4-((pyridin-2-ylmethyl)amino)phenyl)heptanamide]	complete loss of activity	0.0071±0.0004		
CCCCCCC(=O)Nc1ccc(NCc2ccncc2)cc1N [compound 51, N-(2-Amino-4-((pyridin-4-ylmethyl)amino)phenyl)heptanamide]	complete loss of activity	0.0063±0.0002		
CCCCCCC(=O)Nc1ccc(NCc2ccc(O)cc2)cc1N [compound 57, N-(2-Amino-4-((4-hydroxybenzyl)amino)phenyl)heptanamide]	complete loss of activity	0.0068±0.0003		
CCCCCCC(=O)Nc1ccc(NCc2ccc(C(F)(F)F)cc2)c(F)c1N [compound 59, N-(2-Amino-3-fluoro-4-((4-(trifluoromethyl)benzyl)amino)phenyl)heptanamide]	similar	0.0345±0.0026		
CC(C)(C)CC(=O)Nc1ccc(CCc2ccc(C(F)(F)F)cc2)cc1N [compound 68, N-(2-Amino-4-(4-(trifluoromethyl)phenethyl)phenyl)-3,3-dimethylbutanamide]	failed to activate Kv7.2/ Kv7.3 channels	0.0073±0.0005		
CCCCCCNC(=O)c1ccc(NCc2ccc(C(F)(F)F)cc2)cc1N [compound 71, 2-Amino-N-hexyl-4-((4-(trifluoromethyl)benzyl)amino)benzamide]	complete loss of activity	0.0066±0.0006		
N-(2-Amino-4-(4-(trifluoromethyl)phenethyl)phenyl)heptanamide [compound 67]	failed to activate Kv7.2/ Kv7.3 channels	0.0087±0.0002		
